Data set [1] relates to PC12 cells. The data set is described as follows: Aβ42 induced neurotoxicity in PC12 cells (MTT assay). Particulars: 24 h. Here is the method:
Cells were seeded in 96 well plate in log phase of growth at concentration 5 × 10^5 cells per well. […] MTT solution was added to the wells and incubated in dark, for the live cells to convert the tetrazolium salt in purple formazan crystals. The formazan crystals were dissolved using DMSO and absorbance was measured at 570 nm. Relative survival percentage of PC12 cells was calculated compared to control (PC12 cells only). All measurements were performed in triplicates and all experiments were repeated thrice individually.

The test system of data set [2] is PC12 cells. The data set is described as follows: Neuroprotection against H2O2 induced oxidative stress cytotoxicity in PC12 cells (MTT assay). It counts as cell-based, rat. The note with it: compound 40 μM; H2O2 200 µM; negative control 31% viability. The method, then: Cell viability was determined through trypan blue dye exclusion assay and cells were seeded to 96 well tissue culture plate at a 5 × 10^5 cells/well concentration. Pre-incubation with compounds were given to PC12 cells prior to inducing H2O2 cytotoxicity for 18 h. MTT was added to the well at 5 mg/mL concentration and incubated in the dark for enzymatic reaction by live cells for 2 h. DMSO was added to well to dissolve formazan crystals and absorbance was recorded at 570 nm. PC12 cells relative survival was calculated compared to control (PC12 cells only).

A further data set deals with T1, AChE (Electrophorus electricus, UniProt O42275).
T1 construct: acetylcholinesterase from electric eel; purchased Sigma Aldrich, India
T1 sequence (O42275 24-633): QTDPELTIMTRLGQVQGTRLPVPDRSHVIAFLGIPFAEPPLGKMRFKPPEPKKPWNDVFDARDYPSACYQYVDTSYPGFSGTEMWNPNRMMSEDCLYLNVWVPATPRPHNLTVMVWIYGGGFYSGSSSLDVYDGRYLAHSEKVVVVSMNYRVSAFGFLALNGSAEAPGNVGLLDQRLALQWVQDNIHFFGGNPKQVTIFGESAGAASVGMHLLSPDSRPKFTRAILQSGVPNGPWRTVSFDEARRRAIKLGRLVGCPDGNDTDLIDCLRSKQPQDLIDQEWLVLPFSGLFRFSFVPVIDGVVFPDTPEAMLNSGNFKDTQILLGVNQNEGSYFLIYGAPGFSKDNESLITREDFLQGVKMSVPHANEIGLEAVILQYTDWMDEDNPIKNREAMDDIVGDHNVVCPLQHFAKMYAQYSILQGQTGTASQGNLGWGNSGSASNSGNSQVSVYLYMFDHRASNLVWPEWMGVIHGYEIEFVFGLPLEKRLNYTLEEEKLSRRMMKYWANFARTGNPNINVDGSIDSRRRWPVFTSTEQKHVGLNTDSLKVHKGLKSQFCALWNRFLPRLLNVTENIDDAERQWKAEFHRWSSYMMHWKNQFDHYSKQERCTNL
The data set is described as follows: biochemical. Particulars: for SI (selectivity index): AChE selectivity over BuChE, IC50 BuChE/IC50 AChE; for IC50: mean ± SD, three replicate determinations. From the text:
(§1) MAO-B inhibition kit by Biovision. BACE-1 activity assay kit by Sigma Aldrich. […] PC12 (rat pheochromocytoma) cell line was obtained from NCCS, Pune, India. All other reagents used were of analytical grade. All preparations used in tissue culture experiments were filtered through 0.45 µm Axiva 25 mm CA filter. Ethical approval was obtained from GGS Indrapratha University for all the cell culture work done in proper confined facilities.
(§2) Five microliters of enzyme (AChE and BuChE) solution at 0.03 U/mL final assay concentration; 200 μL of phosphate buffer (pH 8); 5 μL of DTNB (0.3 mM); and 5 μL of test compounds were pre-incubated for 15 min at RT. The reaction was initiated by adding 5 μL of substrate (ATChI and BuTChI) at a final concentration of 0.5 mM. The control for relative absorbance consisted of the buffer in place of the test compounds and the enzyme and substrate blank were devoid of enzyme and the substrate, respectively.

Another data set has as its target T2, BuChE (Equus caballus, UniProt P81908).
T2 construct: butyrylcholinesterase from equine serum; purchased Sigma Aldrich, India; host or cells: equine serum
The data set is described as follows: biochemical. The note with it: mean ± SD, three replicate determinations.
Description: as §1, §2

Another data set has as its target T3, BACE-1 (Homo sapiens, UniProt P56817).
T3 construct: purchased Sigma Aldrich
The data set is described as follows: In vitro BACE-1 enzyme inhibition assay (FRET kit). In kind it is biochemical. Here is the method: BACE-1 (EC 3.4.23.46) activity inhibition was assayed using FRET (fluorescence resonance energy transfer) kit (Sigma Aldrich, New Delhi, India). With all reaction components at RT, 50 μM substrate was added to 75 μL assay buffer containing RES and AJM (25, 50, 100 μM) in the microtiter plate. Reaction was initiated by the addition of 0.03 U BACE-1 enzyme in the well and zero minute fluorescence was recorded (Ex 350 nm, Em 405 nm). After 2 h incubation in dark at 37 °C, reaction fluorescence was recorded every one hour for next three hours. Relative fluorescence inhibition was calculated from zero minute fluorescence reading as control. Three individual experiments were performed.

The next data set addresses T4, MAO-B (Homo sapiens, UniProt P27338).
T4 construct: purchased Biovision
T4 sequence (P27338 1-520): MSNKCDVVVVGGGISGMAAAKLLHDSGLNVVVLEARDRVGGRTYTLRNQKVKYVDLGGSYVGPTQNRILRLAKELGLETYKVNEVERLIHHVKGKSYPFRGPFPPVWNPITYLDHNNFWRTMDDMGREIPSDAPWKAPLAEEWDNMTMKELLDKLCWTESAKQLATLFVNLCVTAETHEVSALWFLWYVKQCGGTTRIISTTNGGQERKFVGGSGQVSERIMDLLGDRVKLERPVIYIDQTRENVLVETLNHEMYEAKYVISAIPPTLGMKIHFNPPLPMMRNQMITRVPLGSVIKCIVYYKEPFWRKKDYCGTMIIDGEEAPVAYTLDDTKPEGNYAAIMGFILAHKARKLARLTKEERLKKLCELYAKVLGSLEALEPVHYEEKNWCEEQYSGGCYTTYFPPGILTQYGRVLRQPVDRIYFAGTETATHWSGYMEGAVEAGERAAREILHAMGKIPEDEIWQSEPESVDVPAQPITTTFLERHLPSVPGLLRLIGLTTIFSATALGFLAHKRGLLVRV
The data set is described as follows: MAO-B inhibition assay (Biovision fluorometric kit). In kind it is biochemical. Here is the method: MAO-B (EC 1.4.3.4) activity inhibition was assayed using Biovision inhibition screening kit (fluorometric). With all reaction components at room temperature, 0.2 U enzyme was pre-incubated with compounds under study and incubated for 10 min. Working substrate was prepared fresh by adding developer and oxired probe with assay buffer according to kit instructions. Substrate was added to the reaction and incubated for 10 min; zero-minute fluorescence was recorded (Ex 535 nm, Em 587 nm) to serve as control for relative fluorescence inhibition calculation.

Data set [3] concerns the target T5, Aβ42 (Homo sapiens, UniProt P05067). Briefly: Congo red dye binding (red shift) assay with Aβ42 fibrils. Particulars: CR only 490 nm, Aβ42 only 530 nm.
Description: Aβ42 alone sample was used as control. Samples were incubated at 37 °C at 260 rpm for 48 h in the shaker incubator.
Congo red (200 μM) was dissolved in a 50 mM phosphate buffer (pH 7.4) consisting of 50 mM NaCl and 10% ethanol and filtered through 0.45 µm CA membrane filter. The Aβ42 concentration was fixed at 10 µM in the reaction mixture. […] The absorbance spectra (400–650 nm) of the samples were recorded with a UV-visible spectrophotometer [27]. All experiments had three technological and three biological repeats.
The target of data set [4] is T5, Aβ42. Briefly: ThT fluorescence assay of Aβ42 fibril formation (anti-aggregation). In kind it is biochemical. Set-up: Aβ42—Amyloid beta 1-42 residues; purchased Link biotech (named in a list that ends 'purchased from Sigma Aldrich, India'). The note with it: vs control (Aβ42 only), 48 h; for inhibition of Aβ42 aggregation (ThT fluorescence): at 44 μM. Here is the method: Aβ42 samples were incubated with or without compounds at different concentrations, after 48 h of fibril formation samples from each experimental set were withdrawn and mixed with ThT in opaque micro titer plate. The reactions were then incubated in dark at 37 °C for 30 min for ThT probe to bind the formed amyloid fibrils. The ThT was excited at 450 nm and spectra were recorded from 400 to 650 nm.

Data set [5] deals with T5, Aβ42. Briefly: Circular dichroism spectroscopy of Aβ42 secondary structure (BeStSel). In kind it is biochemical. Set-up: Aβ42—Amyloid beta 1-42 residues; purchased Link biotech (named in a list that ends 'purchased from Sigma Aldrich, India'). Particulars: for Secondary structure content: Others / Secondary structure content: α-helix / Secondary structure content: Turn / Secondary structure content: β-sheet (parallel) / Secondary structure content: β-sheet (antiparallel): Aβ42 22 μM + compound 22 μM, BeStSel from CD spectra; for Secondary structure content: Others / Secondary structure content: α-helix: Aβ42 control 0.0; for Secondary structure content: Turn: Aβ42 control 8.6; for Secondary structure content: β-sheet (parallel): Aβ42 control 16.5; for Secondary structure content: β-sheet (antiparallel): Aβ42 control 74.9; for inhibition in β-sheet formation: compared to control (Aβ42 only), CD, 48 h incubation. The method, then: Secondary structure of Aβ42 peptides were recorded as far UV circular dichroism spectra using Chirascan (Applied PhotoPhysics, New Delhi, India) instrument and software. 22 μM Aβ42 samples (22 μM Aβ42 alone and Aβ42 with RES and AJM) were mixed well ensuring a homogenous suspension and transferred to quartz cell for CD spectra scanning. CD spectra was recorded from 200–260 nm at RT using a bandwidth of 1.0 nm, times per point 0.5 sec, a step interval of 1 nm, and 10 mm path length. Five scans of each sample were measured and averaged. Averaged control buffer scans were subtracted from the sample spectra. The results of CD measurement were plotted as graph between measured ellipticity (millidegree) and wavelength (nm). The secondary structure contents (α-helix, β-sheet, turn, and random coil) of the Aβ42 peptide samples were estimated from the CD spectra using the CD Pro software. Relative percentage of reduced β-sheet content in Aβ42 samples treated with RES and AJM was calculated using BeStSel software.
On the technique in general: Circular dichroism is widely used to follow secondary structure.

For data set [6], the target named is T5, Aβ42. The data set is described as follows: Transmission electron microscopy of Aβ42 aggregates. Set-up: Aβ42—Amyloid beta 1-42 residues; purchased Link biotech (named in a list that ends 'purchased from Sigma Aldrich, India'). The note with it: Aβ42 + 44 μM compound, 37 °C, 48 h; control: abundant long, branched, dense fibrils. Here is the method:
5 μL Aβ42 prepared fibril samples (22 μM) Aβ42 alone and Aβ42 with RES and AJM) were loaded on carbon stabilized, formvar coated grid for 40 sec. Ashless filter paper was used to wipe out extra sample from the edges of the grid. Loaded grid was negatively stained with 1% uranyl acetate for 20 sec and air-dried. Grid was then examined and photographed on JEOL 2100F transmission electron microscope.

T5 sequence (P05067 672-713 limits assumed): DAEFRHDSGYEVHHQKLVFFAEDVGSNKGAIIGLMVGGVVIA
T3 sequence (P56817 46-501): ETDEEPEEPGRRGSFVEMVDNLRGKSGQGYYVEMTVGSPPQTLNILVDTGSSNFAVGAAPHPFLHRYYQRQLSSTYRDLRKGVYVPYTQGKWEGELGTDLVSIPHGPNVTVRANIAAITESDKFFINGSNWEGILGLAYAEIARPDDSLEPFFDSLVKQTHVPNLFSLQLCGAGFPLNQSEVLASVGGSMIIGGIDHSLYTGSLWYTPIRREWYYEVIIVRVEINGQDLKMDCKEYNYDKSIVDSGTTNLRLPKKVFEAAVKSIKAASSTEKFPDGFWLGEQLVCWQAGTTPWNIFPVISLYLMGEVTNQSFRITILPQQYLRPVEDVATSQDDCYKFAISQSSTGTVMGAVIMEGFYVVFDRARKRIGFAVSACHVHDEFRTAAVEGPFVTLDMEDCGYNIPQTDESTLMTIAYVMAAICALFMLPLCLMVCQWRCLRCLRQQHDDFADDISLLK
T2 sequence (P81908 whole entry): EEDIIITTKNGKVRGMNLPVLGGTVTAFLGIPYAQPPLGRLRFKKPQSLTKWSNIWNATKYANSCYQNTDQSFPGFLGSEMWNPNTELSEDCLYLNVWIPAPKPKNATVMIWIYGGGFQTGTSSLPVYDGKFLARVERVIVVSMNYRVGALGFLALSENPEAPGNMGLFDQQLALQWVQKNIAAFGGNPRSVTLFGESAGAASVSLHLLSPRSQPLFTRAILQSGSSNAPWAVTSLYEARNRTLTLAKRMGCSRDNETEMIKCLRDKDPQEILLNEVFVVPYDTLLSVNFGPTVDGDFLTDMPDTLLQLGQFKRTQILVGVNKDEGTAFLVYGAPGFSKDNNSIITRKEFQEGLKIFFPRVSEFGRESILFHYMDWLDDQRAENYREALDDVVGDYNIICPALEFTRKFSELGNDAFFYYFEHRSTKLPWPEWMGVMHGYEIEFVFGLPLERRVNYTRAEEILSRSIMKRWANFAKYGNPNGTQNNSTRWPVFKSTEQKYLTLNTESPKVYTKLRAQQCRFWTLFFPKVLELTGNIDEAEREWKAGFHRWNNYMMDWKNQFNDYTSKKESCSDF

Usually IC50 stands for the midpoint of a concentration-inhibition curve. A high value points to a need for much substance. As to `COC(=O)C1=CO[C@@H](C)[C@H]2CN3CCc4c([nH]c5ccccc45)[C@@H]3C[C@H]12` [Ajmalicine], the “survival of PC12 cells against Aβ42 cytotoxicity (MTT)” value in the data set on PC12 cells [1] (compound 40 μM, Aβ42 fibrils 40 μM) is listed as 67%. Also, in the data set on PC12 cells [2], the “survival of PC12 cells against H2O2 induced oxidative stress (MTT)” value stood at 89%. For the same compound, at AChE, the “SI (selectivity index)” value is on record as 1.55 and the IC50 came out at 3500 ± 1410 nM. This compound displayed an AChE inhibition at AChE (at 50 μM) of 90%. The same compound showed an IC50 against BuChE of 5.44 ± 1.75 µM. The “inhibition of BACE-1 activity” value on BACE-1 (at 50 μM) was found to be 69%. At MAO-B (at 40 μM), the MAO-B inhibition is reported as 89%. Moreover, on Aβ42 [3] (Aβ42 + compound 22 μM), the “Congo red absorbance wavelength (red shift) with Aβ42” value was determined as 510 nm. The “Congo red absorbance wavelength (red shift) with Aβ42” value on Aβ42 [3] (Aβ42 + compound 44 μM) was 510 nm. For the same compound, on Aβ42 [4], the “inhibition of Aβ42 aggregation (ThT fluorescence)” value turned out to be 57%. On Aβ42 [5], the “Secondary structure content: Others” value is 53.1%, the “Secondary structure content: α-helix” value is on record as 0.0%, the “Secondary structure content: Turn” value was determined as 11.7% and the “Secondary structure content: β-sheet (parallel)” value turned out to be 0.0%. In addition, at Aβ42 [5], the “Secondary structure content: β-sheet (antiparallel)” value is reported as 35.2% and the “inhibition in β-sheet formation” value came to 53%. The “morphology of Aβ42 aggregates by TEM” value at Aβ42 [6] was “shorter, loose, and less Aβ42 fibrils along with small oligomers”.
The term inhibition denotes the change of the read-out against control, counted positive when it falls. For the compound `COC(=O)[C@H]1[C@H]2C[C@@H]3c4[nH]c5cc(OC)ccc5c4CCN3C[C@H]2C[C@@H](OC(=O)c2cc(OC)c(OC)c(OC)c2)[C@@H]1OC` [Reserpine], the “survival of PC12 cells against Aβ42 cytotoxicity (MTT)” value in the data set on PC12 cells [1] (rat, 40 μM) came to 92%. In addition, the “survival of PC12 cells against H2O2 induced oxidative stress (MTT)” value in the data set with PC12 cells [2] was 93%. Moreover, at AChE, the “SI (selectivity index)” value stood at 1.65 and the IC50 worked out at 1700 ± 2080 nM. The inhibition at 50 µM on AChE (read-out: AChE inhibition) was 96%. The IC50 on BuChE was 2.8 ± 1.84 µM. In addition, the inhibition at 50 µM on BACE-1 stood at 47%. At MAO-B, the inhibition at 40 µM is 89%. Besides, the “Congo red absorbance wavelength (red shift) with Aβ42” value at Aβ42 [3] (Aβ42 + compound 22 μM) is on record as 510 nm. Moreover, the “Congo red absorbance wavelength (red shift) with Aβ42” value at Aβ42 [3] (Aβ42 + compound 44 μM) was determined as 510 nm. This compound came in with an inhibition at 44 µM against Aβ42 [4] of 69%. At Aβ42 [5], the “Secondary structure content: Others” value is 54.9%, the “Secondary structure content: α-helix” value is on record as 0.0%, the “Secondary structure content: Turn” value is on record as 17.8% and the “Secondary structure content: β-sheet (parallel)” value is 0.0%. For the same compound, on Aβ42 [5], the “Secondary structure content: β-sheet (antiparallel)” value came to 27.3% and the “inhibition in β-sheet formation” value came out at 64%. For the same compound, the “morphology of Aβ42 aggregates by TEM” value on Aβ42 [6] was “shorter, loose, and less Aβ42 fibrils along with small oligomers”.
With `N[C@@H](CCC(=O)N[C@@H](CS)C(=O)NCC(=O)O)C(=O)O` [glutathione], in the data set with PC12 cells [2], the “survival of PC12 cells against H2O2 induced oxidative stress (MTT)” value was found to be 91%.
For `NCCCS(=O)(=O)O` [homotaurine], the “survival of PC12 cells against Aβ42 cytotoxicity (MTT)” value in the data set with PC12 cells [1] (rat, 40 μM) turned out to be 58%.
Take Tannic acid: the “inhibition of Aβ42 aggregation (ThT fluorescence)” value on Aβ42 [4] came to 85%.
